Measured values taken from the NIST ThermoML archive (doi:10.1016/j.jct.2006.02.001).
± gives the expanded uncertainty stated by the source.

What was measured:
[1] = refractive index (Na D-line) (dimensionless); xn = mol fraction of the nth substance listed; conditions: 101 kPa, Liquid
[2] = xn = mol fraction of the nth substance listed; conditions: 101 kPa, Liquid

COc1ccccc1 [anisole] + Cc1cccc(C)c1
Conditions	mass density, 288.15 K [kg/m3]	mass density, 293.15 K [kg/m3]	mass density, 298.15 K [kg/m3]	mass density, 303.15 K [kg/m3]	refractive index, 288.15 K	refractive index, 293.15 K	refractive index, 298.15 K	refractive index, 303.15 K
[1], x1 = 0.1006	–	–	–	–	1.5021 ± 0.0096	1.4992 ± 0.0096	1.4963 ± 0.0096	1.4944 ± 0.0096
[1], x1 = 0.2463	–	–	–	–	1.5055 ± 0.0096	1.5018 ± 0.0096	1.499 ± 0.0096	1.497 ± 0.0096
[1], x1 = 0.3753	–	–	–	–	1.5086 ± 0.0096	1.5042 ± 0.0096	1.5013 ± 0.0096	1.4993 ± 0.0096
[1], x1 = 0.496	–	–	–	–	1.5117 ± 0.0097	1.5065 ± 0.0096	1.5037 ± 0.0096	1.5016 ± 0.0096
[1], x1 = 0.6398	–	–	–	–	1.5155 ± 0.0097	1.5093 ± 0.0096	1.5065 ± 0.0096	1.5044 ± 0.0096
[1], x1 = 0.7468	–	–	–	–	1.5184 ± 0.0097	1.5115 ± 0.0096	1.5088 ± 0.0096	1.5066 ± 0.0096
[1], x1 = 0.8284	–	–	–	–	1.5206 ± 0.0097	1.5132 ± 0.0097	1.5104 ± 0.0096	1.5082 ± 0.0096
[1], x1 = 0.9034	–	–	–	–	1.5228 ± 0.0097	1.5149 ± 0.0097	1.5121 ± 0.0096	1.5098 ± 0.0096
[1], x1 = 0.9613	–	–	–	–	1.5244 ± 0.0097	1.5161 ± 0.0097	1.5133 ± 0.0096	1.511 ± 0.0096
[1], x1 = 1	–	–	–	–	1.5256 ± 0.0098	1.5169 ± 0.0097	1.5141 ± 0.0096	1.5117 ± 0.0096
[2], x1 = 0.1006	880.54 ± 0.85	876.26 ± 0.87	872.02 ± 0.88	867.67 ± 0.9	–	–	–	–
[2], x1 = 0.2463	898.41 ± 0.79	894.1 ± 0.8	889.76 ± 0.82	885.42 ± 0.84	–	–	–	–
[2], x1 = 0.3753	914.55 ± 0.73	910.2 ± 0.75	905.8 ± 0.77	901.39 ± 0.78	–	–	–	–
[2], x1 = 0.496	930.02 ± 0.68	925.62 ± 0.7	921.19 ± 0.71	916.71 ± 0.73	–	–	–	–
[2], x1 = 0.6398	948.95 ± 0.61	944.45 ± 0.63	940.02 ± 0.65	935.48 ± 0.66	–	–	–	–
[2], x1 = 0.7468	963.38 ± 0.56	958.8 ± 0.58	954.36 ± 0.6	949.8 ± 0.61	–	–	–	–
[2], x1 = 0.8284	974.53 ± 0.52	969.91 ± 0.54	965.45 ± 0.56	960.86 ± 0.58	–	–	–	–
[2], x1 = 0.9034	984.93 ± 0.49	980.26 ± 0.51	975.77 ± 0.52	971.13 ± 0.54	–	–	–	–
[2], x1 = 0.9613	993.02 ± 0.46	988.29 ± 0.48	983.78 ± 0.5	979.08 ± 0.52	–	–	–	–
[2], x1 = 1	998.44 ± 0.45	993.65 ± 0.46	989.15 ± 0.48	984.37 ± 0.5	–	–	–	–

COc1ccccc1 [anisole] + Cc1ccccc1
Conditions	mass density, 288.15 K [kg/m3]	mass density, 293.15 K [kg/m3]	mass density, 298.15 K [kg/m3]	mass density, 303.15 K [kg/m3]	refractive index, 288.15 K	refractive index, 293.15 K	refractive index, 298.15 K	refractive index, 303.15 K
[1], x1 = 0.1179	–	–	–	–	1.503 ± 0.0096	1.4997 ± 0.0096	1.4971 ± 0.0096	1.4946 ± 0.0096
[1], x1 = 0.2098	–	–	–	–	1.5056 ± 0.0096	1.5017 ± 0.0096	1.4992 ± 0.0096	1.4966 ± 0.0096
[1], x1 = 0.3078	–	–	–	–	1.5083 ± 0.0096	1.5038 ± 0.0096	1.5012 ± 0.0096	1.4987 ± 0.0096
[1], x1 = 0.4082	–	–	–	–	1.511 ± 0.0097	1.5059 ± 0.0096	1.5033 ± 0.0096	1.5008 ± 0.0096
[1], x1 = 0.5157	–	–	–	–	1.5138 ± 0.0097	1.5081 ± 0.0096	1.5054 ± 0.0096	1.5029 ± 0.0096
[1], x1 = 0.6172	–	–	–	–	1.5163 ± 0.0097	1.5099 ± 0.0097	1.5061 ± 0.0096	1.5049 ± 0.0096
[1], x1 = 0.7286	–	–	–	–	1.5192 ± 0.0097	1.5122 ± 0.0096	1.5095 ± 0.0096	1.5071 ± 0.0096
[1], x1 = 0.8575	–	–	–	–	1.5223 ± 0.0097	1.5145 ± 0.0097	1.5118 ± 0.0096	1.5094 ± 0.0096
[1], x1 = 0.917	–	–	–	–	1.5236 ± 0.0097	1.5155 ± 0.0097	1.5135 ± 0.0096	1.5104 ± 0.0096
[1], x1 = 1	–	–	–	–	1.5256 ± 0.0098	1.5169 ± 0.0097	1.5141 ± 0.0096	1.5117 ± 0.0096
[2], x1 = 0.1179	887.1 ± 0.78	882.58 ± 0.8	877.96 ± 0.82	873.25 ± 0.84	–	–	–	–
[2], x1 = 0.2098	899.23 ± 0.74	894.67 ± 0.76	890.04 ± 0.78	885.33 ± 0.8	–	–	–	–
[2], x1 = 0.3078	912.01 ± 0.69	907.42 ± 0.71	902.81 ± 0.73	898.06 ± 0.75	–	–	–	–
[2], x1 = 0.4082	924.96 ± 0.65	920.33 ± 0.67	915.72 ± 0.69	910.95 ± 0.71	–	–	–	–
[2], x1 = 0.5157	938.67 ± 0.61	934.03 ± 0.63	929.43 ± 0.64	924.67 ± 0.66	–	–	–	–
[2], x1 = 0.6172	951.49 ± 0.57	946.82 ± 0.59	942.24 ± 0.6	937.46 ± 0.62	–	–	–	–
[2], x1 = 0.7286	965.32 ± 0.53	960.65 ± 0.55	956.15 ± 0.56	951.37 ± 0.58	–	–	–	–
[2], x1 = 0.8575	981.16 ± 0.49	976.45 ± 0.5	971.96 ± 0.52	967.26 ± 0.54	–	–	–	–
[2], x1 = 0.917	988.36 ± 0.47	983.65 ± 0.49	979.17 ± 0.5	974.46 ± 0.52	–	–	–	–
[2], x1 = 1	998.44 ± 0.45	993.65 ± 0.46	989.15 ± 0.48	984.37 ± 0.5	–	–	–	–

COc1ccccc1 [anisole] + Cc1ccccc1C
Conditions	mass density, 288.15 K [kg/m3]	mass density, 293.15 K [kg/m3]	mass density, 298.15 K [kg/m3]	mass density, 303.15 K [kg/m3]	refractive index, 288.15 K	refractive index, 293.15 K	refractive index, 298.15 K	refractive index, 303.15 K
[1], x1 = 0.0984	–	–	–	–	1.5091 ± 0.0096	1.5061 ± 0.0096	1.5033 ± 0.0096	1.5015 ± 0.0096
[1], x1 = 0.2473	–	–	–	–	1.5118 ± 0.0096	1.508 ± 0.0096	1.5052 ± 0.0096	1.5027 ± 0.0096
[1], x1 = 0.376	–	–	–	–	1.5141 ± 0.0096	1.5095 ± 0.0096	1.5067 ± 0.0096	1.5048 ± 0.0096
[1], x1 = 0.4951	–	–	–	–	1.516 ± 0.0097	1.5107 ± 0.0096	1.5079 ± 0.0096	1.5059 ± 0.0096
[1], x1 = 0.6454	–	–	–	–	1.5193 ± 0.0097	1.5128 ± 0.0096	1.51 ± 0.0096	1.508 ± 0.0096
[1], x1 = 0.7463	–	–	–	–	1.521 ± 0.0097	1.5145 ± 0.0096	1.5117 ± 0.0096	1.5096 ± 0.0096
[1], x1 = 0.864	–	–	–	–	1.5232 ± 0.0097	1.5156 ± 0.0097	1.5128 ± 0.0096	1.5107 ± 0.0096
[1], x1 = 0.938	–	–	–	–	1.5245 ± 0.0097	1.5164 ± 0.0097	1.5136 ± 0.0096	1.5114 ± 0.0096
[1], x1 = 0.9745	–	–	–	–	1.5252 ± 0.0097	1.5167 ± 0.0097	1.5139 ± 0.0096	1.5116 ± 0.0096
[1], x1 = 1	–	–	–	–	1.5256 ± 0.0098	1.5169 ± 0.0097	1.5141 ± 0.0096	1.5117 ± 0.0096
[2], x1 = 0.0984	894.18 ± 0.86	890.01 ± 0.88	886.52 ± 0.89	881.84 ± 0.91	–	–	–	–
[2], x1 = 0.2473	910.8 ± 0.8	906.56 ± 0.81	902.92 ± 0.83	898.24 ± 0.84	–	–	–	–
[2], x1 = 0.376	925.35 ± 0.74	921 ± 0.76	917.17 ± 0.77	912.46 ± 0.79	–	–	–	–
[2], x1 = 0.4951	939.01 ± 0.69	934.55 ± 0.7	930.58 ± 0.72	925.89 ± 0.74	–	–	–	–
[2], x1 = 0.6454	956.51 ± 0.61	951.98 ± 0.63	947.89 ± 0.65	943.26 ± 0.67	–	–	–	–
[2], x1 = 0.7463	968.37 ± 0.57	963.81 ± 0.58	959.66 ± 0.6	955.11 ± 0.62	–	–	–	–
[2], x1 = 0.864	982.31 ± 0.51	977.72 ± 0.53	973.49 ± 0.54	968.92 ± 0.56	–	–	–	–
[2], x1 = 0.938	991.11 ± 0.47	986.44 ± 0.49	982.08 ± 0.51	977.48 ± 0.53	–	–	–	–
[2], x1 = 0.9745	995.42 ± 0.46	990.69 ± 0.48	986.24 ± 0.49	981.57 ± 0.51	–	–	–	–
[2], x1 = 1	998.44 ± 0.45	993.65 ± 0.46	989.15 ± 0.48	984.37 ± 0.5	–	–	–	–
